Measurements taken from patent publication US11352374B2 (University of Alaska Anchorage, priority 2015, dated 2022).

Key:
[1] = Anti-tumor effect of CORCB-1 in the presence of ROS, normal cells; type: cell-based, human; conditions: human, Hs 895.Sk normal fibroblast cells; 1 mM CORCB-1 + 0.2 mM H2O2, 2 days; read-out: % viable normal cells at 2 days
Experimental: (§1) To further test the anti-tumor effect of CORCBs in the presence of ROS, fibroblast tumor cells (Hs 895.T) and normal fibroblast cells (Hs 895.Sk) were incubated with 1 mM of CORCB-1 and 0.2 mM of H2O2 mixed in the DMEM media without FBS. Media was exchanged every 2 days for longer incubation periods such as 4 and 6 days. […] Both tumor and normal cells are close to 100% viable at 2 days, but for longer treatment periods, tumor cells growth rate declines and normal cell growth remains steady. […] Normal cells are preserved under stressed condition while tumor cells are destroyed.

[2] = test system: normal fibroblast cells (Hs 895.Sk); test: as above; type: cell-based, human; conditions: 1 mM CORCB-1 + 0.2 mM H2O2, 6 days
Experimental: as §1

[3] = CO generated at different pHs, CO meter; type: physicochemical; conditions: compound per FIG. 10 legend
Experimental: FIG. 10 graphically depicts the percent CO generated by CORCB-1 in different pHs monitored by the CO meter. CORCB was dissolved in water with adjusted pH before incubation in 37° C. After 12 hours, CO gas in the head space was analyzed using a CO meter.
CO releasing property of CORCBs is not limited only to the neutral environment. It works in any pH ranging from 2 to 12 as evident in FIG. 10. […] CO is released at the highest amount in the acidic condition of pH 2 with more than 25% in 12 hours.

[4] = Decomposition (amine release) in the presence of H2O2 monitored by 1H NMR; type: physicochemical; conditions: for Decomposition rate at 24 hours, 1H NMR, With 1.5x H2O2: 1.5 equivalents H2O2, 37° C.
Experimental: (§2) The two tested are the common ROS formed naturally in the cells—a non-radical hydrogen peroxide (H2O2) and Fenton reagent which is a more reactive hydroxyl radical (.OH) formed from Fe^2+ and H2O2. Four mole of CORCB compounds were mixed in an aqueous solution with ROS and incubated in a sealed vessel. At respective times, the head space air was injected into the meter to read the amount of CO produced. For analysis by NMR spectroscopy, the reaction mixture was prepared in NMR tube in D2O solvent and incubated for the amount of time indicated.
The reaction with H2O2 is slow-acting, therefore, NMR spectroscopy can be used for monitoring the rate.

[5] = test system: LPS-induced TNF-α production in RAW264.7 cells; test: LPS-induced TNF-α production with CORCB plus H2O2; type: cell-based, mouse
Experimental: RAW264.7 cells at the density of 2×10^4 cells per well in 96-well plate were treated with varying concentrations of CORCB plus different concentrations of H2O2.

[6] = test system: fibroblast tumor cells (Hs 895.T) and normal fibroblast cells (Hs 895.Sk)
Experimental: (§4) Cells were seeded at the density of 3×10^3 cells per well in 96-well plate with different concentrations of CORCBs in DMEM media without FBS, and incubated at 37° C. with 5% CO2 for 2 days.

[7] = CO released on auto-decomposition in water at 37° C., head space measured with CO meter; type: physicochemical
Experimental: (§3) A test to confirm that CO is one of the decomposition products from CORCBs is done by utilizing commercially available CO meter. Four mole of the compounds at the concentrations of 6-12 mg/mL in aqueous solution was incubated at 37° C. in a sealed vessel with 50 mL gas space. CO meter was used to read the concentration of liberated CO gas from the solution. Measurement by CO meter in ppm, after converting to the micromole amount, was used for calculating the percent CO released based on the original amount of compound.
CO liberated from the molecules and coming out to the head space are detected and quantified by using CO meter.

[8] = test system: normal human skin fibroblast cells (Hs 895.Sk); conditions: CORCB-1 (3 mM) + imatinib 20 or 40 μM, day 4 and 6
Experimental: This was tested by using a chemotherapy drug, imatinib, in normal human skin fibroblast cells (Hs 895.Sk). The cultures were treated with 20 μM and 40 μM concentration of imatinib as controls to see their toxicity. Samples with mixtures of CORCB-1 and imatinib were also incubated and cell viability was determined on 2, 4, and 6 days. Media was exchanged every 2 days with fresh reagents.

[9] = test system: LPS-induced TNF-α production in mouse macrophage cells (RAW264.7); test: Inhibition of LPS-induced TNF-α production (ELISA); type: cell-based
Experimental: To test the anti-inflammatory effect of CORCBs, mouse macrophage cells (RAW264.7) were used. 2×10^4 cells per well was seeded in 96-well plate with different concentrations of CORCBs. Cells were incubated in DMEM with 10% FBS at 37° C. and 5% CO2 for 24 hours. LPS (100 ng/mL) was then added and incubated for 4 additional hours. The media containing secreted inflammatory cytokines were collected and these cells were subjected to cell viability test to check their viability. TNF-α concentration in each sample was measured by ELISA assay.

horse Mb = test: Myoglobin (Mb) assay: deoxy-Mb to carboxy-Mb; type: biochemical; conditions: in one hour; 69 μM deoxy-Mb, 50× excess compound, 37° C.; compound per FIG. 2 legend
Experimental: Since there was no literature that reported the use of CO meter with CO releasing molecules, to further confirm that CORCBs release CO, Mb assay was performed using the standard procedure used with other CO releasing compounds. In brief, 1 mM horse Mb in 50 mM sodium phosphate buffer (pH 7.4) was deoxygenated using 3 equivalents of sodium dithionite. Excess dithionite was removed by desalting column. Deoxy-Mb at the concentration of 69 μM was mixed with CORM (50× excess) and incubated in 37° C. Visible spectra in the range of 550-600 nm were recorded at every 10 minutes. Overlaid spectra of these samples show a gradual transformation of deoxy-Mb to carboxy-Mb (FIG. 2). The percent CO released calculated was approximately 1% in one hour.

physchem = test: physchem
Experimental: The kinetics of compound decomposition was followed by observing the ratio of the amount of free amine group to the original compound using ^1H NMR. For instance, Hexamethylenetetramine carboxyborane (CORCB-1) in D2O at the concentration of 12 mg/mL was incubated at 37° C. in the standard NMR tube. ^1H NMR spectra were obtained at different time points to study the kinetics of product formation. […] The ratio of integrated peaks were used for determining the percent of each species present and plotted as a function of time to show the kinetics of auto-decomposition.
^1H, ^11B, and ^13C NMR spectra were recorded at different time points to study the kinetics as well as to observe transformation of CORCB-1 into the products.
In order to determine whether CO is produced in physiological condition, CORCB acid forms were dissolved in aqueous solution at neutral pH. The solution was then subjected to incubation at 37° C. for extended period of time. For studies using NMR, CORCBs were dissolved in D2O. The kinetics of CORCB molecules breaking down to produce CO is determined by taking ^1H NMR spectra at various time points (FIG. 3).
CORCB sodium and ammonium salts were also tested for decomposition by using ^1H NMR spectroscopy. Samples were set up as in Example 1 and rate of decomposition measured (FIG. 4).

[10] = CO released in the presence of Fenton reagent (hydroxyl radical), CO meter; type: physicochemical; conditions: per 5 minutes
Experimental: as §3
as §2, with “All amine carboxyboranes express a faster CO release rate when incubated with the reactive oxygen species. The” for “The”, “indicated. While some CORCBs have increased amount of CO produced when treated with 3 times equivalents of H2O2, CORCB-1 produces similar or less amount of CO. In every sample, either acid or salt form, the hydroxyl radical extracts the amount of CO to a much higher magnitude within a very short amount of time.” for “indicated.”

[11] = CO released in the presence of H2O2, CO meter; type: physicochemical; conditions: for CO release rate at 24 hours, CO meter, With 1.5x H2O2: 1.5 equivalents H2O2, 37° C.
Experimental: as §3, §2

[12] = test system: normal fibroblast cells (Hs 895.Sk); test: Cell viability in DMEM without FBS, Cell Titer Blue, normal cells; conditions: 2 mM, 48 hours
Experimental: as §4

O=C(O)B[N+]12CN3CN(CN(C3)C1)C2 [CORCB-1, Hexamethylenetetramine carboxyborane]
viability at 2 days, 1 mM [1]: ~100%
normal cell growth, 6th day [2]: 89%
CO released at pH 2 ([3]; pH 2, 12 hours, 37° C.): more than 25%
CO release rate as a function of pH (in words) ([3]; pH 2 to 12, 12 hours): the lowest in pH 7
% decomposition / free amine released by 1H NMR with H2O2 ([4]; 1.5 equivalents H2O2, 24 hours): 51%
Decomposition rate at 24 hours, 1H NMR, With 1.5x H2O2 [4]: 50.90%
amount of TNF-α secreted, together with H2O2 [5]: about 25%
selectivity of growth stimulation (in words) ([6]; Hs 895.Sk versus Hs 895.T, 48 hours): more selective towards the normal fibroblast cells
viable cells compared with untreated cells ([6]; human, 48 h): ~180%
CO release rate ([7]; 37° C.): approximately 1 % per hour
% CO liberated at 24 hours by CO meter ([7]; 24 hours, 37° C.): 23%
CO release rate at 24 hours, CO meter, Autodecomposition ([7]; 24 hours, 37° C.): 24%
Rate of % CO released by CORCBs, Autodecomposition ([7]; per 24 hour): 23.47 ± 0.38%
survival rate, mixture of imatinib and CORCB-1 [8]: around 70%
amount of TNF-α secreted, compound alone ([9]; 1 mM, LPS only = 100%): about 80%
effect on LPS-induced TNF-α production (in words) ([9]; 24 hours compound, then LPS 100 ng/mL 4 hours): inhibits the production of TNF-α
percent CO released (Mb assay) (horse Mb): approximately 1%
half-life at 12 mg/mL (physchem): 84 h
Decomposition rate at 24 hours, 1H NMR, Autodecomposition (physchem; 37° C.): 19%
rate of auto-decomposition (physchem; as stated in Example 10): around 20 % per day
rate of decomposition (physchem; in the beginning, acid form, D2O, 37° C.): 0.85 % per hour
Rate of % CO released by CORCBs, With Fenton Reagent [10]: 60.90 ± 0.52%
cell viability after the TNF-α assay (in words) (RAW264.7 cells): all cells were still healthy
% CO produced by CO meter with H2O2 ([11]; 1.5 equivalents H2O2, 24 hours): 12%
CO release rate at 24 hours, CO meter, With 1.5x H2O2 [11]: 12.10%
Rate of % CO released by CORCBs, With H2O2 ([11]; per 24 hour, H2O2 equivalents not given): 20.86 ± 0.82%

O=C([O-])[BH2-][NH2+]C12CC3CC(CC(C3)C1)C2.[Na+] [Na-CORCB-6, Amantadine carboxyborane sodium salt]
Decomposition rate at 24 hours, 1H NMR, With 1.5x H2O2 [4]: 36.90%
CO release rate at 24 hours, CO meter, Autodecomposition ([7]; 24 hours, 37° C.): 0.16%
viability of normal fibroblast cells (in words) [12]: increasing the percent viability of normal fibroblast cells
Decomposition rate at 24 hours, 1H NMR, Autodecomposition (physchem; 37° C.): not measurable
CO release rate at 24 hours, CO meter, With 1.5x H2O2 [11]: 0.80%
